Measurements published in patent US20250215010A1, “DIAZABICYCLOOCTANE DERIVATIVES USEFUL AS MATRIX METALLOPROTEINASE INHIBITORS” (VASA THERAPEUTICS SPOLKA Z OGRANICZONA ODPOWIEDZIALNOSCIA, priority 2022, published 2025).
Like-named read-outs stand apart in the source and are kept apart here.

How the values were obtained:
Type in all cases: biochemical
[1] = biological target: T1, MMP2 (Homo sapiens, UniProt P08253); assay: MMP-2 colorimetric inhibition assay (Enzo kit BML-AK408)
T1 sequence (P08253 110-660): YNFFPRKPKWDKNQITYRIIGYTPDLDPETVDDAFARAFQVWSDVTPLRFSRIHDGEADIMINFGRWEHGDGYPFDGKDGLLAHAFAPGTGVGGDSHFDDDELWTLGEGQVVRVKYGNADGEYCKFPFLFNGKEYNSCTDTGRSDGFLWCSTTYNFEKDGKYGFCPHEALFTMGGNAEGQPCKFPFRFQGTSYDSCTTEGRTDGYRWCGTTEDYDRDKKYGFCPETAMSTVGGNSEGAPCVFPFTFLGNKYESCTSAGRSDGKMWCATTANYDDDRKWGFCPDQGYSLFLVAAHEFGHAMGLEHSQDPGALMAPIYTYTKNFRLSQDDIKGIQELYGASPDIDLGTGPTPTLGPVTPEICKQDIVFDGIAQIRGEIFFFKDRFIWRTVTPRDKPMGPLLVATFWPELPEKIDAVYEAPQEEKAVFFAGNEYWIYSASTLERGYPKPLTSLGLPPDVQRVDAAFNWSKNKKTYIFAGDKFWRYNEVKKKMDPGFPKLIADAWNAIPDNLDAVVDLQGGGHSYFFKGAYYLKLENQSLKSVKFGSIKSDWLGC
Procedure: (§1) The inhibitory activities of the compounds of the invention were assessed in 96-well microplate format using MMP1, MMP2, MMP9 and MMP13 colorimetric assay kits and TACE fluorometric assay kit from Enzo Life Sciences, Inc. The inhibitory effect of the compounds of the invention on ADAM10 activity were evaluated in 96-well microplate format using fluorometric assay from AnaSpec, Inc.
(§2) The MMP-2 Colorimetric Drug Discovery Kit (catalog #BML-AK408) is a complete assay system designed to screen MMP-2 inhibitors using a thiopeptide as a chromogenic substrate (Ac-PLG-[2-mercapto-4-methylpentanoyl]-LG-OC2H5). The MMP cleavage site peptide bond is replaced by a thioester bond in the thiopeptide. Hydrolysis of this bond by an MMP produces a sulfhydryl group, which reacts with DTNB [5,5′-dithiobis(2-nitrobenzoic acid), Ellman's reagent] to form 2-nitro-5-thiobenzoic acid, that can be detected spectrophotometrically.
(§3) The inhibitory activities of the compounds of the invention against MMP1, MMP2, MMP9 and MMP13 were tested according to the manufacturer's assay protocols and the absorbance at 415 nm was monitored using the Tecan Infinite® 200 Pro F Nano^+ microplate reader.
(§4) The normalized values were analyzed using GraphPadPrism 9 for Windows (GraphPad Software, San Diego, CA, USA) software by plotting inhibition curves and determining the IC50 values (in nM).

[2] = biological target: MMP9 (Homo sapiens, UniProt P14780); assay: MMP-9 colorimetric inhibition assay (Enzo kit BML-AK410)
Procedure: as §1
as §2, with “MMP-9” for “MMP-2”, “#BML-AK410)” for “#BML-AK408)”, “screen” for “screen MMP-2”, “inhibitors of matrix metalloproteinase-9” for “inhibitors”
as §3, §4

[3] = biological target: T2, MMP13 (Homo sapiens, UniProt P45452); assay: MMP-13 colorimetric inhibition assay (Enzo kit BML-AK412)
T2 construct: purchased Enzo Life Sciences, Inc. BML-AK412
Procedure: as §1
as §2, with “MMP-13” for “MMP-2”, “#BML-AK412)” for “#BML-AK408)”, “screen” for “screen MMP-2”, “inhibitors of matrix metalloproteinase-13” for “inhibitors”
as §3, §4

[4] = biological target: T3, MMP1 (Homo sapiens, UniProt P03956); assay: MMP-1 colorimetric inhibition assay (Enzo kit BML-AK404)
T3 sequence (P03956 100-269 limits assumed): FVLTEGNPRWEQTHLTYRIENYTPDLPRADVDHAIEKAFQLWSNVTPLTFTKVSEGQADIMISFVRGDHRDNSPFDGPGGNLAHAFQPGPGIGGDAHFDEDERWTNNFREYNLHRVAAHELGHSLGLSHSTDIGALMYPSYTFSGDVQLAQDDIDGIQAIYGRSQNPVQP
Procedure: as §1
as §2, with “MMP-1” for “MMP-2”, “#BML-AK404)” for “#BML-AK408)”, “screen” for “screen MMP-2”, “inhibitors of matrix metalloproteinase-1” for “inhibitors”
as §3, §4

[5] = biological target: ADAM17 (TACE) (Homo sapiens, UniProt P78536); assay: TACE fluorometric inhibition assay (Enzo kit BML-AK310)
Procedure: as §1
The TACE Fluorometric Drug Discovery Kit (catalog #BML-AK310) is a complete assay system designed to screen ADAM17 (TACE) inhibitors using a quenched fluorogenic peptide: Mca-PLAQAV-Dpa-RSSSR—NH2. Mca fluorescence is quenched by the Dpa group until cleavage by proteases separates the two moieties leading to an increase in Mca fluorescence.
The inhibitory activity of the compounds of the invention against TACE was tested according to the manufacturer's assay protocol and the fluorescence was monitored at excitation/emission wavelengths=320 nm/420 nm using Tecan Infinite® 200 Pro F Nano^+ microplate reader.
as §4

[6] = thiopeptide substrate, absorbance 415 nm, read-out: MMP 2 IC50 class
[7] = thiopeptide substrate, absorbance 415 nm, read-out: MMP 9 IC50 class
[8] = thiopeptide substrate, absorbance 415 nm, read-out: MMP 13 IC50 class
[9] = thiopeptide substrate, absorbance 415 nm, read-out: MMP 1 IC50 class
[10] = quenched fluorogenic peptide, ex/em 320/420 nm, read-out: TACE IC50 class

ADAM17 (TACE), sequence (P78536 215-477 limits assumed): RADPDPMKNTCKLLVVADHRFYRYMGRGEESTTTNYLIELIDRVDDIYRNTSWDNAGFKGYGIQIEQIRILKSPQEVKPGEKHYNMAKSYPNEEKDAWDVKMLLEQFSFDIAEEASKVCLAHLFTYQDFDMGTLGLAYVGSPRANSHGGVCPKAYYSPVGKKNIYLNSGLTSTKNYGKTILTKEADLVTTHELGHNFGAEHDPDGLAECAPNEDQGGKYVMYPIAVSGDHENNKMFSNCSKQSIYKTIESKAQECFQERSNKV
MMP9, sequence (P14780 94-707): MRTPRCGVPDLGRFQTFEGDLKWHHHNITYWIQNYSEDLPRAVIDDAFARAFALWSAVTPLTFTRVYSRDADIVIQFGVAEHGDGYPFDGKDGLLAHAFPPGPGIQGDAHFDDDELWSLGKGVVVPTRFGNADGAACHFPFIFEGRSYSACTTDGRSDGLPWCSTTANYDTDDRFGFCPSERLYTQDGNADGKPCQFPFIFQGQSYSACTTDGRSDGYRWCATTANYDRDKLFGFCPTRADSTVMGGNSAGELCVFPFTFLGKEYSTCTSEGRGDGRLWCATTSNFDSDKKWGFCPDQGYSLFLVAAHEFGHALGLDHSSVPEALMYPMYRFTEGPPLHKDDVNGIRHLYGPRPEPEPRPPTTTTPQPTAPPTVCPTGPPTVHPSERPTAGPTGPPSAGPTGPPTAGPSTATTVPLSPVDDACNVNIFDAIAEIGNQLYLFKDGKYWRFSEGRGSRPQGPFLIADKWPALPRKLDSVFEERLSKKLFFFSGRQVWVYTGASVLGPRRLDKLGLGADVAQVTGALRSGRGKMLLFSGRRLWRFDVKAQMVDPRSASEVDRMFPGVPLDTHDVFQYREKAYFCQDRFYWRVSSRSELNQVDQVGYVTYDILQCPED

| SMILES | IC50 [1, 6] [nM] | IC50 [2, 7] [nM] | IC50 [3, 8] [nM] | IC50 [4, 9] [nM] | IC50 [5, 10] [nM] | IC50 [4] [nM] | IC50 [1] [nM] | IC50 [2] [nM] | IC50 [3] [nM] | IC50 [5] [nM] |
| --- | --- | --- | --- | --- | --- | --- | --- | --- | --- | --- |
| COCCOC(=O)N1[C@@H]2CC[C@H]1[C@H](C(=O)NO)N(S(=O)(=O)c1cc(F)c(Oc3ccc(Cl)cc3)c(F)c1)C2 [Example 2, (1S,2R,5R)-2-methoxyethyl 3-((4-(4-chlorophenoxy)-3,5-difluoro-phenyl)sulfonyl)-2-(hydroxycarbamoyl)-3,8-diazabicyclo-[3.2.1]octane-8-carboxylate] | 50 to 1000 | 50 to 1000 | 50 to 1000 | – | – | – | – | – | – | – |
| COCCOC(=O)N1[C@H]2CC[C@@H]1[C@@H](C(=O)NO)N(S(=O)(=O)c1cc(F)c(Oc3ccc(Cl)cc3)c(F)c1)C2 [Example 3, 2-methoxyethyl (1R,2S,5S)-3-((4-(4-chlorophenoxy)-3,5-difluorophenyl)-sulfonyl)-2-(hydroxycarbamoyl)-3,8-diaza-bicyclo[3.2.1]octane-8-carboxylate] | 1000 to 10000 | 1000 to 10000 | 1000 to 10000 | – | – | – | – | – | – | – |
| COCCOC(=O)N1[C@@H]2CC[C@H]1[C@H](C(=O)NO)N(S(=O)(=O)c1ccc(-c3cccc(F)c3)nc1)C2 [Example 4, 2-methoxyethyl (1S,2R,5R)-3-((6-(3-fluorophenyl)pyridin-3-yl)sulfonyl)-2-(hydroxycarbamoyl)-3,8-diaza-bicyclo[3.2.1]octane-8-carboxylate] | 50 to 1000 | 1000 to 10000 | 50 to 1000 | – | – | – | – | – | – | – |
| COCCOC(=O)N1[C@@H]2CC[C@H]1[C@H](C(=O)NO)N(S(=O)(=O)c1cnc(Oc3ccc(F)cc3)c(F)c1)C2 [Example 6, 2-methoxyethyl (1S,2R,5R)-3-((5-fluoro-6-(4-fluoro-phenoxy)pyridin-3-yl)sulfonyl)-2-(hydroxycarbamoyl)-3,8-diazabicyclo[3.2.1]-octane-8-carboxylate] | < 50 | < 50 | < 50 | 1000 to 10000 | 1000 to 10000 | – | – | – | – | – |
| COCCOC(=O)N1[C@@H]2CC[C@H]1[C@H](C(=O)NO)N(S(=O)(=O)c1ccc(OC3CCC(OC)CC3)nc1)C2 (stereo partly drawn) [Example 11, 2-methoxyethyl (1S,2R,5R)-2-(hydroxycarbamoyl)-3-((6-((4-methoxy-cyclohexyl)oxy)-pyridin-3-yl)-sulfonyl)-3,8-diaza-bicyclo[3.2.1]octane-8-carboxylate] | – | – | – | – | – | 1000 to 10000 | < 50 | < 50 | 50 to 1000 | 1000 to 10000 |
| COCCOC(=O)N1[C@@H]2CC[C@H]1[C@H](C(=O)NO)N(S(=O)(=O)c1ccc(OC3CCC(C)(C)CC3)nc1)C2 [Example 12, 2-methoxyethyl (1S,2R,5R)-3-((6-((4,4-dimethyl-cyclohexyl)-oxy)pyridin-3-yl)-sulfonyl)-2-(hydroxycarbamoyl)-3,8-diazabicyclo[3.2.1]-octane-8-carboxylate] | 50 to 1000 | < 50 | 50 to 1000 | 1000 to 10000 | 1000 to 10000 | – | – | – | – | – |
| COCCOC(=O)N1[C@@H]2CC[C@H]1[C@H](C(=O)NO)N(S(=O)(=O)c1ccc(OC3CCOCC3)nc1)C2 [Example 13, 2-methoxyethyl (1S,2R,5R)-2-(hydroxycarbamoyl)-3-((6-((tetrahydro-2H-pyran-4-yl)oxy)-pyridin-3-yl)sulfonyl)-3,8-diazabicyclo[3.2.1]-octane-8-carboxylate] | 50 to 1000 | < 50 | < 50 | 1000 to 10000 | 1000 to 10000 | – | – | – | – | – |
| COCCOC(=O)N1[C@@H]2CC[C@H]1[C@H](C(=O)NO)N(S(=O)(=O)c1ccc(Oc3ccc(F)cc3)cn1)C2 [Example 14, 2-methoxyethyl (1S,2R,5R)-3-((5-(4-fluorophenoxy)pyridin-2-yl)sulfonyl)-2-(hydroxycarbamoyl)-3,8-diazabicyclo[3.2.1]octane-8-carboxylate] | < 50 | < 50 | < 50 | 1000 to 10000 | 1000 to 10000 | – | – | – | – | – |
| COCCOC(=O)N1[C@@H]2CC[C@H]1[C@H](C(=O)NO)N(S(=O)(=O)c1ccc(Oc3cncc(Cl)c3)nc1)C2 [Example 15, (1S,2R,5R)-2-methoxyethyl 3-((6-((5-chloropyridin-3-yl)oxy)pyridin-3-yl)-sulfonyl)-2-(hydroxycarbamoyl)-3,8-diazabicyclo[3.2.1]-octane-8-carboxylate] | 50 to 1000 | 50 to 1000 | 50 to 1000 | 1000 to 10000 | 50 to 1000 | – | – | – | – | – |
| COCCOC(=O)N1[C@@H]2CC[C@H]1[C@H](C(=O)NO)N(S(=O)(=O)c1ccc(Oc3ccc(C)nc3)nc1)C2 [Example 16, 2-methoxyethyl (1S,2R,5R)-2-(hydroxycarbamoyl)-3-((6-((6-methylpyridin-3-yl)-oxy)pyridin-3-yl)-sulfonyl)-3,8-diaza-bicyclo[3.2.1]octane-8-carboxylate] | < 50 | 50 to 1000 | 50 to 1000 | 1000 to 10000 | 1000 to 10000 | – | – | – | – | – |
| COCCOC(=O)N1[C@@H]2CC[C@H]1[C@H](C(=O)NO)N(S(=O)(=O)c1cnc(Oc3ccc(F)cc3)cn1)C2 [Example 17, 2-methoxyethyl (1S,2R,5R)-3-((5-(4-fluorophenoxy)-pyrazin-2-yl)sulfonyl)-2-(hydroxycarbamoyl)-3,8-diazabicyclo-[3.2.1]octane-8-carboxylate] | 1000 to 10000 | 1000 to 10000 | 1000 to 10000 | > 10000 | > 10000 | – | – | – | – | – |
| COCCOC(=O)N1[C@@H]2CC[C@H]1[C@H](C(=O)NO)N(S(=O)(=O)c1ccc(Oc3nc4cc(F)ccc4o3)c(F)c1)C2 [Example 83, 2-methoxyethyl (1S,2R,5R)-3-((3-fluoro-4-((5-fluoro-benzo[d]oxazol-2-yl)oxy)phenyl)sulfonyl)-2-(hydroxy-carbamoyl)-3,8-diazabicyclo[3.2.1]-octane-8-carboxylate] | 1000 to 10000 | 1000 to 10000 | 1000 to 10000 | – | – | – | – | – | – | – |
| COCCOC(=O)N1[C@@H]2CC[C@H]1[C@H](C(=O)NO)N(S(=O)(=O)c1ccc(Oc3nc4ccccc4o3)nc1)C2 [Example 84, 2-methoxyethyl (1S,2R,5R)-3-((6-(benzo[d]oxazol-2-yloxy)pyridin-3-yl)sulfonyl)-2-(hydroxycarbamoyl)-3,8-diazabicyclo[3.2.1]octane-8-carboxylate] | > 10000 | > 10000 | > 10000 | – | – | – | – | – | – | – |
